Experimental data from ChEMBL document CHEMBL6087404, “Naphthoindole-2-carboxamides as a lipophilic chemotype of hetarene-anthraquinones potent against P-gp resistant tumor cells” (Eur J Med Chem, 2025).
Activity calls are given as the source filed them. The rule behind the calls is not given here.

Assays:
K562 [1] = assay: Antiproliferative activity against human K562 cells incubated for 72 hrs by MTT assay; type: functional, cell-based; settings: K562, 72 h
[2] = Antiproliferative activity against hFB-hTERT6 cells incubated for 72 hrs by MTT assay; type: toxicity, cell-based; settings: human
[3] = Selectivity index, ratio of IC50 for human hFB-hTERT6 cells to IC50 for human K562 cells; type: toxicity; settings: hFB-hTERT6 cells and K562 cells, read-out: Ratio IC50
[4] = Drug uptake in P-gp+ human K562/4 cells at 2 uM incubated for 3 to 120 hrs by flow cytometry; type: ADME, cell-based; settings: k562/4, 2 µM, time 3-120 hrs
[5] = Drug uptake in P-gp+ human K562i/S9 cells at 2 uM incubated for 3 to 120 hrs by flow cytometry; type: ADME, cell-based; settings: k562i/s9, 2 µM, time 3-120 hrs
[6] = Drug uptake in verapamil-treated human K562/4 cells at 2 uM incubated for 3 to 120 hrs by flow cytometry relative to wild-type culture; type: ADME, cell-based; settings: k562/4, 2 µM, time 3-120 hrs
[7] = Drug uptake in verapamil-treated human K562i/S9 cells at 2 uM incubated for 3 to 120 hrs by flow cytometry relative to wild-type culture; type: ADME, cell-based; settings: k562i/s9, 2 µM, time 3-120 hrs
[8] = Drug uptake in human K562i/S9 cells assessed as fold increase at 2 uM incubated for 3 to 120 hrs by flow cytometry relative to LCTA-2640; type: ADME, cell-based; settings: k562i/s9, 2 µM, time 3-120 hrs
[9] = Drug uptake in P-gp+ human […] cells at 3 uM incubated for 10 mins by confocal microscopy; type: ADME, cell-based; settings: k562/4, 10 min
[10] = Drug uptake in human HCT-116 cells at 3 uM incubated for 10 mins by confocal microscopy; type: ADME, cell-based; settings: hct-116, 10 min
[11] = Drug uptake in cytoplasmic membrane of human HCT-116 cells at 3 uM incubated for 1 hr by confocal microscopy; type: ADME, cell membranes, Cytoplasm membrane; settings: hct-116, 1 h
[12] = Drug uptake in mitochondria of human HCT-116 cells at 3 uM incubated for 1 hr by MitoTracker Red FM dye based confocal microscopy; type: ADME; settings: hct-116, 1 h
K562 [13] = assay: Induction of apoptosis in human K562 cells assessed as viable cells at 1 uM incubated for 24 hrs by Annexin V-FITC/PI staining based flow cytometry (reference value: 85.9 %); type: functional; settings: read-out: Activity
K562 [14] = assay: Induction of apoptosis in human K562 cells assessed as late apoptotic cells at 1 uM incubated for 24 hrs by Annexin V-FITC/PI staining based flow cytometry (reference value: 2.5 %); type: functional
K562 [15] = assay: Induction of apoptosis in human K562 cells assessed as necrotic cells at 1 uM incubated for 24 hrs by Annexin V-FITC/PI staining based flow cytometry (reference value: 10.8 %); type: functional
K562/4 [16] = assay: Induction of apoptosis in human K562/4 cells assessed as viable cells at 1 uM incubated for 24 hrs by Annexin V-FITC/PI staining based flow cytometry (reference value: 86 %); type: functional; settings: read-out: Activity
K562/4 [17] = assay: Induction of apoptosis in human K562/4 cells assessed as late apoptotic cells at 1 uM incubated for 24 hrs by Annexin V-FITC/PI staining based flow cytometry (reference value: 2.5 %); type: functional
K562 [18] = assay: Induction of apoptosis in human K562 cells assessed as early apoptotic cells at 1 uM incubated for 48 hrs by Annexin V-FITC/PI staining based flow cytometry (reference value: 0.8 %); type: functional
K562/4 [19] = assay: Induction of apoptosis in human K562/4 cells assessed as viable cells at 1 uM incubated for 48 hrs by Annexin V-FITC/PI staining based flow cytometry (reference value: 86 %); type: functional; settings: read-out: Activity
K562/4 [20] = assay: Induction of apoptosis in human K562/4 cells assessed as early apoptotic cells at 1 uM incubated for 48 hrs by Annexin V-FITC/PI staining based flow cytometry (reference value: 1 %); type: functional
K562 [21] = assay: Effect on cell cycle distribution in human K562 cells assessed as cells with fragmented DNA at sub-G1 phase at 0.75 uM incubated for 24 hrs by PI staining based flow cytometry (reference value: 3 %); type: functional
K562 [22] = assay: Effect on cell cycle distribution in human K562 cells assessed as cells with fragmented DNA at sub-G1 phase at 0.75 uM incubated for 48 hrs by PI staining based flow cytometry (reference value: 3 %); type: functional
K562 [23] = assay: Effect on cell cycle distribution in human K562 cells assessed as cells with fragmented DNA at sub-G1 phase at 0.75 uM incubated for 72 hrs by PI staining based flow cytometry (reference value: 3 %); type: functional
K562 [24] = assay: Effect on cell cycle distribution in human K562 cells assessed as cells with fragmented DNA at sub-G1 phase at 1 uM incubated for 24 hrs by PI staining based flow cytometry (reference value: 3 %); type: functional
K562 [25] = assay: Effect on cell cycle distribution in human K562 cells assessed as cells with fragmented DNA at sub-G1 phase at 1 uM incubated for 72 hrs by PI staining based flow cytometry (reference value: 3 %); type: functional
K562/4 [26] = assay: Effect on cell cycle distribution in human K562/4 cells assessed as cells with fragmented DNA at sub-G1 phase at 0.75 uM incubated for 48 hrs by PI staining based flow cytometry (reference value: 4 %); type: functional
K562/4 [27] = assay: Effect on cell cycle distribution in human K562/4 cells assessed as cells with fragmented DNA at sub-G1 phase at 0.75 uM incubated for 72 hrs by PI staining based flow cytometry (reference value: 4 %); type: functional
K562/4 [28] = assay: Effect on cell cycle distribution in human K562/4 cells assessed as cells with fragmented DNA at sub-G1 phase at 1 uM incubated for 24 hrs by PI staining based flow cytometry (reference value: 4 %); type: functional
K562/4 [29] = assay: Effect on cell cycle distribution in human K562/4 cells assessed as cells with fragmented DNA at sub-G1 phase at 1 uM incubated for 72 hrs by PI staining based flow cytometry (reference value: 4 %); type: functional
DNA = assay: Binding affinity to pBR322 plasmid DNA (unknown origin) assessed as effect on electrophoretic mobility of DNA at 1 to 40 uM incubated for 30 mins; type: nucleic-acid assay; settings: Escherichia coli, dose 1-40 µM

CS(=O)(=O)O.N[C@H]1CCN(C(=O)c2cc3c(O)c4c(c(O)c3[nH]2)C(=O)c2ccccc2C4=O)C1
IC50 (K562 [1]): 500 nM | IC50 at 72 h [2]: 4200 nM | selectivity ratio [3]: 8.4 | Drug uptake [4]: Active | Drug uptake [5]: Active | Drug uptake [6]: 80% | Drug uptake [7]: 50% | fold change (FC) [8]: <= 2 | Drug uptake [9]: Active | Drug uptake [10]: Active | Drug uptake [11]: Not_active | Drug uptake [12]: Active | viability at 1 µM (K562 [13]): 29% | Activity (K562 [14]): 24.5% | Activity (K562 [15]): 46.2% | viability at 1 µM (K562/4 [16]): 30.1% | Activity (K562/4 [17]): 20.4% | Activity (K562 [18]): 0.5% | viability at 1 µM (K562/4 [19]): 3.4% | Activity (K562/4 [20]): 0.1% | Activity (K562 [21]): 21% | Activity (K562 [22]): 26% | Activity (K562 [23]): 30% | Activity (K562 [24]): 42% | Activity (K562 [25]): 97% | Activity (K562/4 [26]): 6% | Activity (K562/4 [27]): 5% | Activity (K562/4 [28]): 30% | Activity (K562/4 [29]): 89% | Activity (DNA): inactive
